# Experimental data published in patent US8765679B2, “Extract and peptides derived from Oryza sativa Japonica Group and uses thereof” (Yissum Research Development Company of The Hebrew …, priority 2010, dated 2014).
# Entries after “also recorded” stand apart in the source; their conditions may differ.
# How the values were obtained:
# [1] = system: EAE mice; test: Experimental autoimmune encephalitis (EAE) induced with MOG peptide 35-55, neurological score; format: in vivo, Female C57BL/6 mice; conditions: for neurological score / neurological symptoms: oral 100 μg/kg, FIG. 2C, FIG. 3
# [2] = system: Murine naïve CD4 cells; test: Cytokine profile of RA1-treated CD4 cells (ELISA of supernatants); format: cell-based; conditions: anti-CD3/anti-CD28/IL2-activated CD4 cells, supernatants at 72 h
# Protocol: Murine lymph nodes and/or spleens were mashed, harvested and single cell suspension was passed through a […] cell strainer and washed. Murine naïve CD4 cells were MACS separated using Miltenyi CD4 beads (Miltenyi Biotec GmbH, Bergisch Gladbach, ermany) according to manufacture instructions. Isolated T cells were seeded and activated with anti-CD3 […] and anti-CD28 […] (BD Biosciences, San Jose, Calif., USA) in the presence of IL2 (10 U/ml), (PeproTech Inc, Rocky Hill, N.J., USA). For cytokine production and RA1 determination supernatants were collected for ELISA. Cytokine analysis was performed in supernatants at 72 h using commercial kits: IFNγ, IL12 and IL4 (Perpotech), IL-17 (R&D systems) and IL10 (BD Biosciences).
# [3] = system: mouse peritoneal macrophages; test: Oxidative burst of PMA-activated peritoneal macrophages (luminescence); format: cell-based; conditions: for oxidative burst in activated macrophages (luminescence): added 1 minute after PMA, FIG. 6
# Protocol: Mice were injected i.p. with thioglycolate. Peritoneal macrophages were obtained and incubated with horse-reddish peroxidase and luminol. The reaction started by the addition of phorbol myristate acetate (PMA) and 1 minute later RA1 was added. Luminescence measurement was started after PMA addition. Each cycle represents 74 seconds.
# Mice were injected ip with 1.5 ml thioglycolate (29.8 g/l). Peritoneal macrophages were obtained and incubated (2.5×10^6 cells/ml) in HBSS with 2 μl of 1 mM CoCl2, 2 μl 100 mM Na2SeO3, 2 μl of 10 mM luminal. The reaction started by the addition of 5 μl of 100 μM phorbol myristate acetate (PMA) (final concentration of 2.5 μM) and one minute later RA1 was added. Luminescence measurement was started after PMA addition. Each cycle represents 74 seconds.
# [4] = system: carrageenan-induced hind paw swelling; test: Carrageenan-induced hind paw swelling; format: in vivo; conditions: 30 minutes prior to carrageenan, FIG. 5
# Protocol: RA1 or saline were injected 30 minutes prior to carrageenan injection into the subplantar area. The diameter of the subplantar area was measured every 60 minutes by a micrometer. […] The effect of RA1 was tested in an animal model for inflammation. Inflammation induced by carrageenan, is acute, well-researched, and highly reproducible. Cardinal signs of inflammation edema, hyperalgesia, and erythema develop immediately following subcutaneous injection, resulting from action of proinflammatory agents bradykinin, histamine, tachykinins, complement and reactive oxygen, and nitrogen species. The inflammatory response is usually quantified by increase in paw size (edema). RA1 or its vehicle, i.e., saline, was injected ip 30 minutes prior to carrageenan treatment. Carrageenan (50 μl of 3 mg/ml) was injected into the subplantar area of both limbs of each animal. The diameter of the subplantar area was measured every 60 minutes by a micrometer. The degree of swelling was assessed by the difference between thicknesses measured after and prior to carrageenan injection (zero time).
# [5] = system: experimental model of MS; conditions: intravenous and oral administrations; cited from earlier work
# [6] = 3 times a week, starting 7 days after MOG immunization
sequence,measurement,setting,value
AEMIDLAAKMLSEG (ORYZA SATIVA JAPONICA) [RA4],neurological score / neurological symptoms,[1]; [6],reduction of the neurological score
AEMIDLAAKMLSEGR (ORYZA SATIVA JAPONICA) [RA3],neurological score / neurological symptoms,[1]; [6],reduction of the neurological score
"AEMIDLAAKMLSEGRG (ORYZA SATIVA JAPONICA) [RA1, 16-mer peptide, amino acid residues 217-232 of Oryza sativa Japonica Group]",neurological score,"[1]; i.p. 0.1 μg/kg, three times a week, starting seven days after MOG immunization, FIG. 4",an increased effect
same,neurological score,"[1]; i.v., once on the day of MOG immunization, FIG. 2A",significantly improved
same,neurological score / neurological symptoms,[1]; [6],beneficial in reducing the neurological symptoms; also recorded: an increased effect
same,IFNγ production,[2]; FIG. 10A,reduction
same,IL17 production,[2]; FIG. 10B,reduction
same,IL4 production,[2]; FIG. 10C,elevation
same,IL10 production,[2]; FIG. 10D,elevation
same,oxidative burst in activated macrophages (luminescence),[3]; 0.1 ng/ml,less effective
same,oxidative burst in activated macrophages (luminescence),[3]; 1.0 ng/ml,less effective
same,oxidative burst in activated macrophages (luminescence),[3]; 10 ng/ml,strongly inhibited
same,hydroxyl radical scavenger,[3]; summary statement referring to Example 6,highly effective
same,swelling induced after the carrageenan injection,[4]; one dose 1.0 μg/kg ip,significantly reduced
same,swelling induced after the carrageenan injection,[4]; one dose 10 μg/kg ip,significantly reduced
EMIDLAAKMLSEGRG (ORYZA SATIVA JAPONICA) [RA2],neurological score,"[1]; i.p. 1 μg/kg, 3 times a week, starting 7 days after MOG immunization, FIG. 2B, FIG. 4",reduction of the neurological score
"KGHYAERVG (listed as Homo sapiens) [IIIM1, 9-mer peptide derived from human histone H2A]",neurological symptoms in the diseased mice,[5],significantly ameliorated the neurological symptoms
